One compound from US11407761B2, “Derivative of β-apopicropodophyllin and method of preparing thereof” (J&C Sciences, priority 2020, dated 2022) can be followed below.

SMILES strings stand for the structures.

The subject of experiment [1] is A549. The experiment in a line: PrestoBlue cell viability, A549. It counts as cell-based, Human. Conditions: Homo sapiens, A549, 48 h, lung. The method, then: (§1) Human lung cancer cells A549, NCl-H460 and 7 cancer cell lines were cultured in RPMI 1640 medium containing 10% FBS (Gibco, USA) and 1% penicillin-streptomycin. Human colon cancer cell HCT-116 cell line was cultured in McCoy's 5A medium containing 10% FBS (Gibco, USA) and 1% penicillin-streptomycin. Human leukemia cancer cell HL-60 cell line was cultured in IMDM medium containing 20% FBS (Gibco, USA) and 1% penicillin-streptomycin. Human normal cell line WI-38 was cultured in MEM containing 10% FBS (Gibco, USA), 1% penicillin-streptomycin, and 1% Non-Essential Amin Acids solution. Human normal cell line HUVEC cultured in Human Endothelial Growth Medium containing. All the cells were cultured in sterilized cell culture plastic dishes or 96-well plastic plates in a humidified incubator filled with 95% air and 5% CO2 gas and maintained at a temperature of 37° C.
(§2) First, the cells are seeded in a 96-well plate (Nunc, 165305) at a volume of 100 μl, and then cultured in an incubator overnight to confirm that they grow well on the plate. Depending on the concentration of the drugs, each well is treated with 100 μl of the compound and then incubated to allow cells and compounds to react for 48 hrs. PrestoBlue Cell Viability Reagent (Invitrogen, A13262) was added to the compound-treated well, and then the plates were incubated in a humidified incubator at 37° C. for 30 mins. Each well was measured at a fluorescence detected with the wavelength of an excitation of 560 nm and an emission of 590 nm using by microplate reader (BioTek, Synergy H1). The IC50 value is calculated by using the Gen5 software.

Experiment [2] relates to MCF-7. The experiment in a line: PrestoBlue cell viability, MCF-7. In kind it is cell-based. Conditions: Homo sapiens, MCF7; breast, MCF-7, 48 h. The protocol:
as §1, §2

In experiment [3] the test system is HCC827. The experiment can be described thus: PrestoBlue cell viability, HCC827. In kind it is cell-based. Conditions: Homo sapiens; lung, HCC827, 48 h. The protocol:
as §1, §2

The test system of experiment [4] is HL-60. The experiment can be described thus: PrestoBlue cell viability, HL-60. In kind it is cell-based, Human. Conditions: leukemia, HL-60, 48 h. The method, then: as §1, §2
Experiment [5] deals with H1650. The experiment can be described thus: PrestoBlue cell viability, H1650. In kind it is cell-based. Conditions: Homo sapiens, NCI-H1650; lung, H1650, 48 h. The protocol: as §1, §2
Experiment [6] deals with MDA-MB-231. The experiment in a line: PrestoBlue cell viability, MDA-MB-231. It counts as cell-based. Conditions: Homo sapiens; breast, MDA-MB-231, 48 h. The method, then:
as §1, §2

The test system of experiment [7] is H146. The experiment can be described thus: PrestoBlue cell viability, H146. It counts as cell-based. Conditions: Homo sapiens, NCI-H146; lung, H146, 48 h. The protocol:
as §1, §2

Experiment [8] has as its system CFPAC-1. The experiment in a line: PrestoBlue cell viability, CFPAC-1. It counts as cell-based. Conditions: Homo sapiens; pancreas, CFPAC-1, 48 h. The method, then:
as §1, §2

Experiment [9] deals with H1299. The experiment in a line: PrestoBlue cell viability, H1299. In kind it is cell-based. Conditions: Homo sapiens, NCI-H1299; lung, H1299, 48 h. The protocol: as §1, §2
Experiment [10] deals with K562. The experiment in a line: PrestoBlue cell viability, K562. Conditions: Homo sapiens; leukemia, K562, 48 h. It counts as cell-based, Human. The method, then: as §1, §2
The test system of experiment [11] is H460. The experiment in a line: PrestoBlue cell viability, H460. Conditions: Homo sapiens, NCI-H460, 48 h, lung. In kind it is cell-based, Human. The method, then:
as §1, §2

Experiment [12] has as its system WI-38. The experiment can be described thus: PrestoBlue toxicity test, normal cells WI-38. It counts as cell-based, Human. Conditions: WI-38, 48 h. The method, then: as §1, §2
Experiment [13] has as its system WI-26. The experiment can be described thus: PrestoBlue toxicity test, normal cells WI-26. It counts as cell-based, Human. Conditions: WI-26, 48 h.
The subject of experiment [14] is HUVEC. The experiment can be described thus: PrestoBlue toxicity test, normal cells HUVEC. It counts as cell-based, Human. Conditions: 48 h. The method, then: as §1, §2
Experiment [15] has as its system BxPC-3. The experiment can be described thus: PrestoBlue cell viability, BxPC-3. It counts as cell-based. Conditions: Homo sapiens; pancreas, BxPC-3, 48 h. The method, then: as §1, §2
For experiment [16], the system named is HCT-116. The experiment can be described thus: PrestoBlue cell viability, HCT-116. It counts as cell-based. Conditions: Homo sapiens; colon, HCF116 (HCT-116), 48 h. The protocol:
as §1, §2

The test system of experiment [17] is H1975. The experiment can be described thus: PrestoBlue cell viability, H1975. It counts as cell-based. Conditions: Homo sapiens, NCI-H1975; lung, H1975, 48 h. The method, then: as §1, §2

Usually IC50 stands for the concentration that gives 50% inhibition.

Take `COc1cc([C@@H]2C3=C(COC3=O)Cc3cc4c(cc32)OCO4)cc(OC)c1OC(=O)c1ccccc1` [example 2, Benzoic acid (5S)-2,6-dimethoxy-4-(6-oxo-5,6,8,9-tetrahydrofuro[3′,4′:6,7]naphtho[2,3-d][1,3]dioxol-5-yl)-phenyl ester]: the IC50 in experiment [1] is 0.202 µM; in experiment [2] it was > 50 µM; in [3], > 50 µM; in experiment [4] it was 0.25 µM; in [5] it was > 50 µM; in [6] it was > 50 µM. Moreover, the IC50 in experiment [7] was > 50 µM; in [8], > 50 µM; in [9], > 50 µM; in experiment [10], > 50 µM; in experiment [11], 0.134 µM; in experiment [12] (Homo sapiens), ≥ 50 µM. The IC50 was > 50 µM in [12]; ≥ 50 µM in experiment [13] (Homo sapiens, 48 h); > 50 µM in [13]; > 50 µM in [14]; ≥ 50 µM in experiment [14] (Homo sapiens); > 50 µM in experiment [15]. In addition, the IC50 in experiment [16] is 1.39 µM; in experiment [17], > 50 µM.
